Key:
Assay in all cases: radiometric filter-binding kinase assay
[1] = tested on: AKT2 (human), P31751 [S474D]
[2] = molecular target: BTK (human) (UniProt Q06187)
[3] = molecular target: CDK2 CCNA2 (human) (UniProt P20248+P24941)
[4] = molecular target: CHEK2 (human) (UniProt O96017)
[5] = molecular target: CSK (human) (UniProt P41240); conditions: compound 10.0 µM
[6] = molecular target: CSNK1D (human) (UniProt P48730)
[7] = molecular target: EPHA4 (human) (UniProt P54764)
[8] = molecular target: EPHB1 (human) (UniProt P54762)
[9] = molecular target: EPHB4 (human) (UniProt P54760)
EPHB4 (human), sequence (P54760 whole entry, looked up): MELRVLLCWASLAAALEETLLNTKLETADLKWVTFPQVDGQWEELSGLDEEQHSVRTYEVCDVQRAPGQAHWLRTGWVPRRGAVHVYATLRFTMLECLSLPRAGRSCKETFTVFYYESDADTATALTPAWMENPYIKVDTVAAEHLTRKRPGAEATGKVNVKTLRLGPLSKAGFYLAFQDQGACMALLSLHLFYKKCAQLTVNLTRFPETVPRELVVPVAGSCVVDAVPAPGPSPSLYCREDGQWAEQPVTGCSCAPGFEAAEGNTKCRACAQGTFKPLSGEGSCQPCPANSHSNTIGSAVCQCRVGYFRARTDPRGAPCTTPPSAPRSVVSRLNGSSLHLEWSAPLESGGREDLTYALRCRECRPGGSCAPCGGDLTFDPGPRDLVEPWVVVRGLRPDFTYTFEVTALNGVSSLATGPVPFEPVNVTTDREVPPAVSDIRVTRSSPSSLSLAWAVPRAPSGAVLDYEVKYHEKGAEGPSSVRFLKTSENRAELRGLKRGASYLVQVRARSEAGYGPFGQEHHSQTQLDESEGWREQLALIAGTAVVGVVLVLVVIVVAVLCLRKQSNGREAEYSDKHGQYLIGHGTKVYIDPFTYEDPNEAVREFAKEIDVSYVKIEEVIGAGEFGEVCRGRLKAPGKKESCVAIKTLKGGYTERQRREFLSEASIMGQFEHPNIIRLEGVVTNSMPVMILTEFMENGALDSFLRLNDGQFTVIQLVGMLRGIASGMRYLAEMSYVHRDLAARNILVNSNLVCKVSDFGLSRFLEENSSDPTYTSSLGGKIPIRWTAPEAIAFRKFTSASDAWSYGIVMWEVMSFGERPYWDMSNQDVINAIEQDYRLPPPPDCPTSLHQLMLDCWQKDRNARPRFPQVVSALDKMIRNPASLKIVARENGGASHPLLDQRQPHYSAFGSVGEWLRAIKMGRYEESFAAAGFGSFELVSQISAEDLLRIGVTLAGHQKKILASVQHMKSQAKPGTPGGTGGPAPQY

[10] = molecular target: FLT1 (human) (UniProt P17948); conditions: compound 10.0 µM
[11] = molecular target: IKBKB (human) (UniProt O14920)
[12] = molecular target: IKBKE (human) (UniProt Q14164)
[13] = molecular target: INSRR (human) (UniProt P14616)
INSRR (human), sequence (P14616 whole entry, looked up): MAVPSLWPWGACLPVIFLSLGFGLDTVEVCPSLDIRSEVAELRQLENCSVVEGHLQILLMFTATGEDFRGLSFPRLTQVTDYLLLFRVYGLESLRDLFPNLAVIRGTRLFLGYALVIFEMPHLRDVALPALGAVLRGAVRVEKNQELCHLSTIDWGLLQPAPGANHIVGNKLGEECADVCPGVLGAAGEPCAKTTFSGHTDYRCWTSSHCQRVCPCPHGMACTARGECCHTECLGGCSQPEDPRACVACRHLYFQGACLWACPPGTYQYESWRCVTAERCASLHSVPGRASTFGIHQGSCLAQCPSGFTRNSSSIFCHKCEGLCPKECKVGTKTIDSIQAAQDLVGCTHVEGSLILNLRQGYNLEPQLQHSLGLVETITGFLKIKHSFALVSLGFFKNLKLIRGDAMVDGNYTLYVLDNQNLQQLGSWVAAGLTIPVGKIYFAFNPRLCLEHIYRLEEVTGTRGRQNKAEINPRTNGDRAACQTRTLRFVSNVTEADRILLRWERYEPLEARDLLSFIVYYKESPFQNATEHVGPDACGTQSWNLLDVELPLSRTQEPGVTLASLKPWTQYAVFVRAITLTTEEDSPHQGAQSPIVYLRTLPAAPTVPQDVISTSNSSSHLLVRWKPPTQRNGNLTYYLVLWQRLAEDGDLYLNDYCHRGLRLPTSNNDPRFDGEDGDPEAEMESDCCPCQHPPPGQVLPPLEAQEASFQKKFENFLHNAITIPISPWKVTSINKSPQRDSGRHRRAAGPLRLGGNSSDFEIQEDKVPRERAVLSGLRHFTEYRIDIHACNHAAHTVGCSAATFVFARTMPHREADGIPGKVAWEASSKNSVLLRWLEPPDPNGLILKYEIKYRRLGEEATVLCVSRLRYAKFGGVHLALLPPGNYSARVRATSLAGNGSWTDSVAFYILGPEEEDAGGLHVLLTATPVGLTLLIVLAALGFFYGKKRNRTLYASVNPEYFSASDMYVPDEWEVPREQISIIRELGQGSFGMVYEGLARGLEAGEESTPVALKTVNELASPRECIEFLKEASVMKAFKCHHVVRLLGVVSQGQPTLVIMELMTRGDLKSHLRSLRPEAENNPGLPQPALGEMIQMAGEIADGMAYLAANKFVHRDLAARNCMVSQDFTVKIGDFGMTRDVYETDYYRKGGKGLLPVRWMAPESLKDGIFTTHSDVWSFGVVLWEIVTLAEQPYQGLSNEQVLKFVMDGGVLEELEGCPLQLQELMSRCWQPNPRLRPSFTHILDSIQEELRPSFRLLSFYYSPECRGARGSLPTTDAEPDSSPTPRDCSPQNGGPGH

[14] = molecular target: MAP2K1 (human) (UniProt Q02750)
[15] = molecular target: MAPK1 (human) (UniProt P28482)
MAPK1 (human), sequence (P28482 whole entry, looked up): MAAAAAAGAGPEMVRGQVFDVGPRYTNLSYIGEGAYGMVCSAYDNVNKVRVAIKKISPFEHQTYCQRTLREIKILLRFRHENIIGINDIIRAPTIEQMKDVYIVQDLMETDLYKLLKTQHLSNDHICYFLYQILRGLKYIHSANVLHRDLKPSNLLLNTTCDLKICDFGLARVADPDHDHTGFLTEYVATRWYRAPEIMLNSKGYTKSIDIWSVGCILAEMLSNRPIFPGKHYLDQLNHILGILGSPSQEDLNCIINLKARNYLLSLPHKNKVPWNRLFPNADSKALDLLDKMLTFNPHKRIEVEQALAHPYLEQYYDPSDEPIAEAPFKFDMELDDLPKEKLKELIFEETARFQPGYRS

[16] = molecular target: MAPK14 (human) (UniProt Q16539)
MAPK14 (human), sequence (Q16539 whole entry, looked up): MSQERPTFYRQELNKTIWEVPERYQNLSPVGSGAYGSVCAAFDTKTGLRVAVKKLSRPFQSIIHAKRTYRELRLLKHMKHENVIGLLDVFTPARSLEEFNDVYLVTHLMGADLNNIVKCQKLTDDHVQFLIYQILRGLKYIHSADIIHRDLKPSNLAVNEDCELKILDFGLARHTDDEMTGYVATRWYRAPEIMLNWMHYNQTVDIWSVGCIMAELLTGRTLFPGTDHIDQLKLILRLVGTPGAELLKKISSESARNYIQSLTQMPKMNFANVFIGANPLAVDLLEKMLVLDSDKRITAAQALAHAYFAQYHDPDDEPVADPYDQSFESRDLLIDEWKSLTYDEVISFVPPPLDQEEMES

[17] = molecular target: MAPK15 (human) (UniProt Q8TD08)
[18] = molecular target: MAPK3 (human) (UniProt P27361)

EPHA4 (human), sequence (P54764 whole entry, looked up): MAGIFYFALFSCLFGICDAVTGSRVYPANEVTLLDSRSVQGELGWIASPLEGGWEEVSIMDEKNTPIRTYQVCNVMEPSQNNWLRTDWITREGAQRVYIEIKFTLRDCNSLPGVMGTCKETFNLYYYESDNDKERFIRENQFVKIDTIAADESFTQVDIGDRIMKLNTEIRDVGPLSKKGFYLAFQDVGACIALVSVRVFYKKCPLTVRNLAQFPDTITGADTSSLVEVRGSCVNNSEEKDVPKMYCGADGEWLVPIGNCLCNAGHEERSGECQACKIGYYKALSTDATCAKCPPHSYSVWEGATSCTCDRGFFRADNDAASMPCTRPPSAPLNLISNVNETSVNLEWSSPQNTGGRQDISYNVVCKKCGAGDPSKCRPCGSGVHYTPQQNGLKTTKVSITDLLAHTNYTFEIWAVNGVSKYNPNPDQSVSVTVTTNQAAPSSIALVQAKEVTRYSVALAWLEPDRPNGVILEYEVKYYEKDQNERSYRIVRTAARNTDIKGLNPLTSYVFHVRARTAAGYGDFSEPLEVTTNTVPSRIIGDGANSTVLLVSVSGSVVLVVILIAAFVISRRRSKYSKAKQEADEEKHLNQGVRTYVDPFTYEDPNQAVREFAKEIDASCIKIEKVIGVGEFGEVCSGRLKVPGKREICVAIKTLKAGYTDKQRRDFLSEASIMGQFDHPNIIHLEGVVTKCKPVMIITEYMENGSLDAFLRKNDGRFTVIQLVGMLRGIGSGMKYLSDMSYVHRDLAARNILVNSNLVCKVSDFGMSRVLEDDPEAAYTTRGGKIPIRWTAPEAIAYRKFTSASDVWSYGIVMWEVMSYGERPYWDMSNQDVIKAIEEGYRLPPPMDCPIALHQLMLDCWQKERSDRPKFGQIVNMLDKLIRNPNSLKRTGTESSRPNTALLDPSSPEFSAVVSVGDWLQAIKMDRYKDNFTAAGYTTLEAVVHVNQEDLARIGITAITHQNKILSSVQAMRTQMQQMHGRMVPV
CSNK1D (human), sequence (P48730 whole entry, looked up): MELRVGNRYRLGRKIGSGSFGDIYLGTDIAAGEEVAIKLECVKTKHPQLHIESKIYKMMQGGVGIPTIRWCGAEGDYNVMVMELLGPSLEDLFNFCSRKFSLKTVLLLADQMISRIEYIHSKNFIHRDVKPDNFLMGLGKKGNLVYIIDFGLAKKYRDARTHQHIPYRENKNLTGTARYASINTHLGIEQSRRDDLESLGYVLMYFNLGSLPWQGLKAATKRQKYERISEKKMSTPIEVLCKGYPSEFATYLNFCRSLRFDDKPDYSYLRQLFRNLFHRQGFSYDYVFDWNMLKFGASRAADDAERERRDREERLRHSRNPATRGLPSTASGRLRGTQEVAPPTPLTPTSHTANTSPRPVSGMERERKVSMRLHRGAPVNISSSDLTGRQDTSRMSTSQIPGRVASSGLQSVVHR
BTK (human), sequence (Q06187 whole entry, looked up): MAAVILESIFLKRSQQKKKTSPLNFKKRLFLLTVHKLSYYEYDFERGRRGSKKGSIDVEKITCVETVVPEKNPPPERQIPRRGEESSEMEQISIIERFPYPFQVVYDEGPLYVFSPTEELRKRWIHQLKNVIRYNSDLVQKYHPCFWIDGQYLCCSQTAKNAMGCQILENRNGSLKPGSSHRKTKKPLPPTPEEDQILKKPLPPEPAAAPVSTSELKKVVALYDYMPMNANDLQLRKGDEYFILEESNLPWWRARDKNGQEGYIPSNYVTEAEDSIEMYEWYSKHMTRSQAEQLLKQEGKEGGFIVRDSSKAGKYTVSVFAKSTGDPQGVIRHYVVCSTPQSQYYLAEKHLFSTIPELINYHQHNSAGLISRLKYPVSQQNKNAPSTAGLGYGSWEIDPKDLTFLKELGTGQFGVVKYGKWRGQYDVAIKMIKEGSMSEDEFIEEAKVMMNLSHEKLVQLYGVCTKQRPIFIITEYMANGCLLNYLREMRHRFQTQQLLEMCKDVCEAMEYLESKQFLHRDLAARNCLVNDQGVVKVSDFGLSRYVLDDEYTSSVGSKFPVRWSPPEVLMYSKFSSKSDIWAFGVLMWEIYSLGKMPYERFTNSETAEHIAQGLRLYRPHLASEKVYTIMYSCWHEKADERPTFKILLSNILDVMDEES

Question: For `Cc1ccc(-c2ccc3c(ccc4sc5c(c43)NC[C@@H](C)NC5=O)n2)cn1`, which residual activity ([1]; compound 1.0 µM) is on record?
Answer: 90%

Question: And the residual activity ([1]; compound 10.0 µM)?
Answer: 69%

Question: And the residual activity ([2]; compound 0.1 µM)?
Answer: 120%

Question: And the residual activity ([2]; compound 1.0 µM)?
Answer: 118%

Question: And the residual activity ([2]; compound 10.0 µM)?
Answer: 107%

Question: What about the residual activity ([3]; compound 0.1 µM) of the same compound?
Answer: 111%

Question: What about the residual activity ([3]; compound 1.0 µM) of the same compound?
Answer: 93%

Question: What about the residual activity ([3]; compound 10.0 µM) of the same compound?
Answer: 57%

Question: And the residual activity ([4]; compound 0.1 µM)?
Answer: 112%

Question: What about the residual activity ([4]; compound 1.0 µM) of the same compound?
Answer: 51%

Question: And the residual activity ([4]; compound 10.0 µM)?
Answer: 9%

Question: What about the residual activity [5] of the same compound?
Answer: 106%

Question: What about the residual activity ([6]; compound 0.1 µM) of the same compound?
Answer: 96%

Question: And the residual activity ([6]; compound 1.0 µM)?
Answer: 96%

Question: And the residual activity ([6]; compound 10.0 µM)?
Answer: 92%

Question: And the residual activity ([7]; compound 0.1 µM)?
Answer: 99%

Question: What about the residual activity ([7]; compound 1.0 µM) of the same compound?
Answer: 103%

Question: What about the residual activity ([7]; compound 10.0 µM) of the same compound?
Answer: 78%

Question: What about the residual activity ([8]; compound 0.1 µM) of the same compound?
Answer: 113%

Question: What about the residual activity ([8]; compound 1.0 µM) of the same compound?
Answer: 106%

Question: What about the residual activity ([8]; compound 10.0 µM) of the same compound?
Answer: 106%

Question: What about the residual activity ([9]; compound 0.1 µM) of the same compound?
Answer: 110%

Question: What about the residual activity ([9]; compound 1.0 µM) of the same compound?
Answer: 106%

Question: And the residual activity ([9]; compound 10.0 µM)?
Answer: 99%

Question: What about the residual activity [10] of the same compound?
Answer: 65%

Question: And the residual activity ([11]; compound 0.1 µM)?
Answer: 115%

Question: And the residual activity ([11]; compound 1.0 µM)?
Answer: 109%

Question: And the residual activity ([11]; compound 10.0 µM)?
Answer: 101%

Question: And the residual activity ([12]; compound 0.1 µM)?
Answer: 98%

Question: What about the residual activity ([12]; compound 1.0 µM) of the same compound?
Answer: 95%

Question: And the residual activity ([12]; compound 10.0 µM)?
Answer: 44%

Question: What about the residual activity ([13]; compound 0.1 µM) of the same compound?
Answer: 99%

Question: And the residual activity ([13]; compound 1.0 µM)?
Answer: 79%

Question: What about the residual activity ([13]; compound 10.0 µM) of the same compound?
Answer: 53%

Question: What about the residual activity ([14]; compound 0.1 µM) of the same compound?
Answer: 101%

Question: What about the residual activity ([14]; compound 1.0 µM) of the same compound?
Answer: 97%

Question: And the residual activity ([14]; compound 10.0 µM)?
Answer: 69%

Question: What about the residual activity ([15]; compound 0.1 µM) of the same compound?
Answer: 102%

Question: And the residual activity ([15]; compound 10.0 µM)?
Answer: 81%

Question: And the residual activity ([16]; compound 0.1 µM)?
Answer: 94%

Question: What about the residual activity ([16]; compound 1.0 µM) of the same compound?
Answer: 94%

Question: What about the residual activity ([16]; compound 10.0 µM) of the same compound?
Answer: 83%

Question: And the residual activity ([17]; compound 0.1 µM)?
Answer: 96%

Question: And the residual activity ([17]; compound 1.0 µM)?
Answer: 79%

Question: And the residual activity ([17]; compound 10.0 µM)?
Answer: 38%

Question: What about the residual activity ([18]; compound 0.1 µM) of the same compound?
Answer: 111%

Question: What about the residual activity ([18]; compound 1.0 µM) of the same compound?
Answer: 108%
